Measurements reported in the NIST ThermoML archive (doi:10.1016/j.fluid.2006.06.005).
± gives the expanded uncertainty stated by the source.

Conditions: 323.15 K; Liquid

First: O [water]
Second: CC(=O)O [acetic acid]
The “vapor or sublimation pressure” value of the first is higher: 12.35 ± 0.17 kPa for the first, 7.72 ± 0.28 kPa for the second.

Compared with CO [methanol], COC(C)=O [methyl ethanoate] is higher in “vapor or sublimation pressure” value: 55.61 ± 0.52 kPa for the first, 79.21 ± 0.71 kPa for the second.
